Data as given in patent US12180139B2, “Method for preparing aminoalkanoic acid derivative containing biphenyl group” (AMTIXBIO CO., LTD., priority 2019, dated 2024).

Key:
A. fumigatus = settings: visual reading; expressed as a range value
Method: (§3) An in vitro antifungal susceptibility test was performed in accordance with the US Clinical and Laboratory Standards Institute (CLSI) guidelines to measure the degree of antifungal activity of the compounds synthesized in the Preparation Examples against opportunistic pathogenic fungi. […] The MIC value (μg/ ? ) is expressed as a range value. Specifically, Candida species and Cryptococcus neoformans were incubated in a Sabouraud dextrose agar (SDA) (Sigma-Aldrich) solid medium for 24 and 48 hours, respectively to obtain single colonies. The obtained single colonies were suspended in 0.85% physiological saline to prepare fungal cell suspension (1 to 5×10^6 cells/ ? ). Fungal cells 2000-fold diluted in RPMI1640 broth (Sigma-Aldrich) were seeded on 96-well plates (5×10^2 to 2.5×10^3 cells/ ? , 195 ? /well). Serial two-fold dilutions (128, 64, 32, 16, 8, 4, 2, 1, and 0.5 μg/ ? ) of compounds were prepared by diluting the compounds synthesized according to the above preparation examples. Then, 5 ? from each dilution was added to the well of the 96-well plate containing fungal cell suspension to give a final suspension of 200 ? per well. […] As a positive control, amphotericin B (AMB), which is highly toxic to the human body but is known as a representative antifungal agent, was used.

C. glabrata = settings: RPMI1640 broth, 35° C., 48 hours, visual reading; expressed as a range value
Method: as §3

C. neoformans = settings: RPMI1640 broth, 35° C., 72 hours, visual reading; expressed as a range value
interleukin 6 (IL-6) = settings: RAW264.7 cells, compound 8 μg/mL 1 hour, then LPS 1 μg/mL 24 hours; relative to LPS without compound
Method: The anti-inflammatory effects of the compounds of the present invention were evaluated using RAW264.7 cells which were stimulated to secrete interleukin 6 (IL-6). Specifically, RAW264.7 cells (obtained from Korean Cell Line Bank), mouse macrophages, were inoculated into a 12-well plate at 5×10^5 cells/well and incubated at 37° C. for 16 to 24 hours. The compounds of the present invention were added to the cell culture medium containing RAW264.7 cells incubated as above at a final concentration of 0 or 8 μg/ ? , and then incubated at 37° C. for 1 hour. Next, lipopolysaccharide (LPS, Sigma-Aldrich, USA) was further added to the medium at a final concentration of 1 μg/ ? , and the medium was incubated at 37° C. for 24 hours to induce IL-6 expression. Thereafter, IL-6 levels produced by the RAW264.7 cells were measured using an ELISA kit (Komabiotech Inc. Korea) according to the manufacturer's instructions. In Table 9, IL6 levels were expressed as a relative percentage (%) between LPS-induced IL6 levels after the treatment with the compound of the present invention and LPS-induced IL6 levels without the treatment of the compound of the present invention.

C. albicans = settings: RPMI1640 broth, 35° C., 48 hours, visual reading; expressed as a range value
S. epidermidis (+) = settings: MHB liquid medium, 37° C., 24 hours
Method: (§1) The antibacterial activities against Gram-positive bacteria, Gram-negative bacteria or multi-drug resistant bacteria were evaluated for the compounds of the present invention. The MIC test was conducted in accordance CLSI guidelines. E. coli(−), P. aeruginosa(−), and S. enterica(−) were used as Gram-negative bacteria, B. cereus(+), B. subtilis(+), B. coagulans(+), L. monocytogenes(+), M. luteus(+), P. acnes(+), S. epidermidis(+), and S. aureus(+) were used as Gram-positive bacteria. Methicillin-resistant Staphylococcus aureus (MRSA) was used as multi-drug resistant bacteria. The bacterial cells were incubated until the OD600 of the single colonies reached 0.1. […] Subsequently, bacterial cells were incubated at 37° C. for 24 hours, and then the MICs (μg/ ? ) were determined by visual reading and optical density detection at 600 nm (OD600). As a positive control, Nofloxacin and Vancomycin were used.

S. aureus (+) = settings: MHB liquid medium, 37° C., 24 hours
Method: as §1

MRSA = assay: Antibacterial MIC test (CLSI); format: cell-based, Methicillin-resistant Staphylococcus aureus; settings: MHB liquid medium, 37° C., 24 hours
Method: (§2) The MIC test was conducted in accordance CLSI guidelines. […] As a positive control, Nofloxacin and Vancomycin were used.

L. monocytogenes (+) = assay: Antibacterial MIC test (CLSI); format: cell-based; settings: MHB liquid medium, 37° C., 24 hours
Method: as §2

P. acnes (+) = assay: Antibacterial MIC test (CLSI); format: cell-based; settings: MHB liquid medium, 37° C., 24 hours
Method: as §2

E. coli (−) = assay: Antibacterial MIC test (CLSI); format: cell-based; settings: MHB liquid medium, 37° C., 24 hours
Method: as §2

B. subtilis (+) = assay: Antibacterial MIC test (CLSI); format: cell-based; settings: MHB liquid medium, 37° C., 24 hours
Method: as §2

M. luteus (+) = assay: Antibacterial MIC test (CLSI); format: cell-based; settings: MHB liquid medium, 37° C., 24 hours
Method: as §2

B. cereus (+) = assay: Antibacterial MIC test (CLSI); format: cell-based; settings: MHB liquid medium, 37° C., 24 hours
Method: as §2

S. aureus enterica (−) = assay: Antibacterial MIC test (CLSI); format: cell-based; settings: MHB liquid medium, 37° C., 24 hours
Method: as §2

B. coagulans (+) = assay: Antibacterial MIC test (CLSI); format: cell-based; settings: MHB liquid medium, 37° C., 24 hours
Method: as §2

Structure (SMILES)	MIC (μg/mL) A. fumigatus (A. fumigatus)	MIC (μg/mL) C. glabrata (C. glabrata)	MIC (μg/mL) C. neoformans (C. neoformans)	Relative IL-6 levels (%) (interleukin 6 (IL-6))	MIC (μg/mL) C. albicans (C. albicans)	MIC S. epidermidis (+) (S. epidermidis (+)) [µg/mL]	MIC S. aureus (+) (S. aureus (+)) [µg/mL]	MIC MRSA (MRSA) [µg/mL]	MIC L. monocytogenes (+) (L. monocytogenes (+)) [µg/mL]	MIC P. acnes (+) (P. acnes (+)) [µg/mL]	MIC E. coli (−) (E. coli (−)) [µg/mL]	MIC B. subtilis (+) (B. subtilis (+)) [µg/mL]	MIC M. luteus (+) (M. luteus (+)) [µg/mL]	MIC B. cereus (+) (B. cereus (+)) [µg/mL]	MIC S. aureus enterica (−) (S. aureus enterica (−)) [µg/mL]	MIC B. coagulans (+) (B. coagulans (+)) [µg/mL]
CCCC(N)C(=O)Nc1ccc(-c2ccc(OC(F)(F)F)cc2)cc1.Cl (racemic) [Compound 32, (R)/(S)-2-amino-N-(4′-(trifluoromethoxy)-[1,1′-biphenyl]-4-yl)pentanamide hydrochloride]	4~16 μg/mL	4~16 μg/mL	2~8 μg/mL	16	4~16 μg/mL											
CCCC(C(=O)Nc1ccc(-c2ccc(Cl)c(Cl)c2)cc1)N(C)C (racemic) [Compound 36, (R)/(S)-N-(3′,4′-dichloro-[1,1′-biphenyl]-4-yl)-2-(dimethylamino)pentanamide]	4~16 μg/mL	4~16 μg/mL	2~8 μg/mL	9	4~16 μg/mL											
CCCC(N)C(=O)NCc1ccc(-c2ccc(Cl)c(Cl)c2)cc1.Cl (racemic) [Compound 45, (R)/(S)-2-amino-N-((3′,4′-dichloro-[1,1′-biphenyl]-4-yl)methyl)pentanamide hydrochloride]	8~32 μg/mL	8~32 μg/mL	2~8 μg/mL	3	8~32 μg/mL											
CCCC(N)C(=O)NCc1ccc(-c2ccc(C(F)(F)F)cc2)cc1.Cl (racemic) [Compound 47, (R)/(S)-2-amino-N-((4′-(trifluoromethyl)-[1,1′-biphenyl]-4-yl)methyl)pentanamide hydrochloride]	8~32 μg/mL	8~32 μg/mL	4~16 μg/mL	12	8~32 μg/mL											
CCCCC(N)C(=O)NCc1ccc(-c2ccc(C(F)(F)F)cc2)cc1.Cl (racemic) [Compound 48, (R)/(S)-2-amino-N-((4′-(trifluoromethyl)-[1,1′-biphenyl]-4-yl)methyl)hexanamide hydrochloride]	4~16 μg/mL	4~16 μg/mL	4~16 μg/mL	67	4~16 μg/mL											
CCCC(N)C(=O)NCc1ccc(-c2ccc(OC(F)(F)F)cc2)cc1.Cl (racemic) [Compound 49, (R)/(S)-2-amino-N-((4′-(trifluoromethoxy)-[1,1′-biphenyl]-4-yl)methyl)pentanamide hydrochloride]	8~32 μg/mL	8~32 μg/mL	4~16 μg/mL	50	8~32 μg/mL											
CCCCC(N)C(=O)NCc1ccc(-c2ccc(OC(F)(F)F)cc2)cc1.Cl (racemic) [Compound 50, (R)/(S)-2-amino-N-((4′-(trifluoromethoxy)-[1,1′-biphenyl]-4-yl)methyl)hexanamide hydrochloride]	4~16 μg/mL	4~16 μg/mL	4~16 μg/mL	68	4~16 μg/mL											
CCCC(NC)C(=O)NCc1ccc(-c2ccc(C(F)(F)F)cc2)cc1.Cl (racemic) [Compound 52, (R)/(S)-2-(methylamino)-N-((4′-(trifluoromethyl)-[1,1′-biphenyl]-4-yl)methyl)pentanamide hydrochloride]	8~32 μg/mL	8~32 μg/mL	4~16 μg/mL	13	8~32 μg/mL											
CCCC(C(=O)NCc1ccc(-c2ccc(Cl)c(Cl)c2)cc1)N(C)C (racemic) [Compound 53, (R)/(S)-N-((3′,4′-dichloro-[1,1′-biphenyl]-4-yl)methyl)-2-(dimethylamino)pentanamide]	8~32 μg/mL	8~32 μg/mL	2~8 μg/mL	5	8~32 μg/mL											
CCCC(N)C(=O)NCCc1ccc(-c2ccc(C(F)(F)F)cc2)cc1.Cl (racemic) [Compound 77, (R)/(S)-2-amino-N-(2-(4′-(trifluoromethyl)-[1,1′-biphenyl]-4-yl)ethyl)pentanamide hydrochloride]	8~32 μg/mL	8~32 μg/mL	4~16 μg/mL	5	8~32 μg/mL											
CCCC(N)C(=O)NCCc1ccc(-c2ccc(OC(F)(F)F)cc2)cc1.Cl (racemic) [Compound 80, (R)/(S)-2-amino-N-(2-(4′-(trifluoromethoxy)-[1,1′-biphenyl]-4-yl)ethyl)pentanamide hydrochloride]	4~16 μg/mL	4~16 μg/mL	2~8 μg/mL	6	4~16 μg/mL											
CCCC(N)C(=O)NCCc1ccc(-c2ccc(F)c(F)c2)cc1.Cl (racemic) [Compound 82, (R)/(S)-2-amino-N-(2-(3′,4′-difluoro-[1,1′-biphenyl]-4-yl)ethyl)pentanamide hydrochloride]	4~16 μg/mL	4~16 μg/mL	4~16 μg/mL	3	4~16 μg/mL											
CCC(NC)C(=O)NCCc1ccc(-c2ccc(Cl)c(Cl)c2)cc1.Cl (racemic) [Compound 83, (R)/(S)-N-(2-(3′,4′-dichloro-[1,1′-biphenyl]-4-yl)ethyl)-2-(methylamino)butanamide hydrochloride]	8~32 μg/mL	8~32 μg/mL	2~8 μg/mL	9	8~32 μg/mL											
CCC(NC)C(=O)NCCc1ccc(-c2ccc(OC(F)(F)F)cc2)cc1.Cl (racemic) [Compound 89, (R)/(S)-2-(methylamino)-N-(2-(4′-(trifluoromethoxy)-[1,1′-biphenyl]-4-yl)ethyl)butanamide hydrochloride]	8~32 μg/mL	8~32 μg/mL	8~32 μg/mL		8~32 μg/mL	16	32	32	16	16	16	16	16	>64	32	<4
CCCCC(NC)C(=O)NCCc1ccc(-c2ccc(OC(F)(F)F)cc2)cc1.Cl (racemic) [Compound 91, (R)/(S)-2-(methylamino)-N-(2-(4′-(trifluoromethoxy)-[1,1′-biphenyl]-4-yl)ethyl)hexanamide hydrochloride]	4~16 μg/mL	4~16 μg/mL	2~8 μg/mL		4~16 μg/mL	<4	8	8	<4	<4	8	16	<4	16	16	<4
